How the values were obtained:
[1] = target: Sigma non-opioid intracellular receptor 1 (Homo sapiens, UniProt Q99720); assay: DRUGMATRIX: Sigma1 radioligand binding (ligand: [3H] Haloperidol); format: cell membranes, Jurkat, Membrane; conditions: jurkat; Not Active = under 50% inhibition at 10 µM
[2] = target: T1, Vasoactive intestinal polypeptide receptor 1 (Homo sapiens, UniProt P32241); format: cell membranes, Membrane; conditions: ht-29; note: in other assays of this panel Not Active means under 50% inhibition at 10 µM
T1 sequence (P32241 whole entry): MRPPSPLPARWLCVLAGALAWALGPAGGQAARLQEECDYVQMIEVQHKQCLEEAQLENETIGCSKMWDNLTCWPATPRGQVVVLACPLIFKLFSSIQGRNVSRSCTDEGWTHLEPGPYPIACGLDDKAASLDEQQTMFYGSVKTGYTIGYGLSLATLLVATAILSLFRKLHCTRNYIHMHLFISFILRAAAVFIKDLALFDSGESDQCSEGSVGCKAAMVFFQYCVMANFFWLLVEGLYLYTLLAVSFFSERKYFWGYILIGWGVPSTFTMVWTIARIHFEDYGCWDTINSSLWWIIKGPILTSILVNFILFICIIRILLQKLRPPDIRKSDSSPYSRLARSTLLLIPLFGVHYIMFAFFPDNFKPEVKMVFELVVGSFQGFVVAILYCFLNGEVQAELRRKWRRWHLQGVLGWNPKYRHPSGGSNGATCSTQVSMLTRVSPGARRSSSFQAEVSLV

[3] = DRUGMATRIX: Leukotriene, BLT (LTB4) radioligand binding (ligand: [3H]LTB4); format: cell membranes, Membrane; conditions: u-937; Not Active = under 50% inhibition at 10 µM
Melanocortin receptor 3 = Melanocortin receptor 3 (Homo sapiens, UniProt P41968); format: cell membranes, Membrane; conditions: hek293; note: in other assays of this panel Not Active means under 50% inhibition at 10 µM
Chain of Melanocortin receptor 3 (P41968 whole entry): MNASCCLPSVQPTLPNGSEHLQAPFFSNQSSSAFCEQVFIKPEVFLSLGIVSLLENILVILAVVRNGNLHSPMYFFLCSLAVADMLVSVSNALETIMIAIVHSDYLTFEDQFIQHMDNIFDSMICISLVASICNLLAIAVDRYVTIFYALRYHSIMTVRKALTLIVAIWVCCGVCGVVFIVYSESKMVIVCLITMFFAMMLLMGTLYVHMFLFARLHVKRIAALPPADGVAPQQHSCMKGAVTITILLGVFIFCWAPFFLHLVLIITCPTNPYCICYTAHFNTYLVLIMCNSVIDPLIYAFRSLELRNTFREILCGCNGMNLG

Mu-type opioid receptor = Mu-type opioid receptor (Homo sapiens, UniProt P35372); assay: DRUGMATRIX: Opiate mu (OP3, MOP) radioligand binding (ligand: [3H] Diprenorphine); format: cell membranes, CHO-K1, Membrane; conditions: cho-k1; Not Active = under 50% inhibition at 10 µM
Chain of Mu-type opioid receptor (P35372 whole entry): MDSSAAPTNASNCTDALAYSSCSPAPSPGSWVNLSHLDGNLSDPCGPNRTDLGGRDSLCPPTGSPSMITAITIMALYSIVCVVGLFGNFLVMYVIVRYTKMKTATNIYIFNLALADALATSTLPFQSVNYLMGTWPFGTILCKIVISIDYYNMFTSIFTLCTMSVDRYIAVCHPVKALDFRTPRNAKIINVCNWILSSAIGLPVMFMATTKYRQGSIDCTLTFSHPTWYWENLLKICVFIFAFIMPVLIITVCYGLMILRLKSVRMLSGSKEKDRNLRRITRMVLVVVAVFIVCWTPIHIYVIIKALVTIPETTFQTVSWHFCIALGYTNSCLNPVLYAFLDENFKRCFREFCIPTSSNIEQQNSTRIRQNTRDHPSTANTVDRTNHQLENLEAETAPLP

[4] = target: cGMP-specific 3',5'-cyclic phosphodiesterase (Homo sapiens, UniProt O76074); assay: DRUGMATRIX: Phosphodiesterase PDE5 enzyme inhibition (substrate: [3H]cGMP + cGMP); format: tissue-based; conditions: platelet; Not Active = under 50% inhibition at 10 µM
Adenosine receptor A1 = target: T2, Adenosine receptor A1 (Homo sapiens, UniProt P30542); format: cell membranes, CHO, Membrane; conditions: cho;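 note: radioligand binding assay at the adenosine A1 receptor, with DPCPX serving as the labelled ligand; in other assays of this panel Not Active means under 50% inhibition at 10 µM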
T2 sequence (P30542 whole entry): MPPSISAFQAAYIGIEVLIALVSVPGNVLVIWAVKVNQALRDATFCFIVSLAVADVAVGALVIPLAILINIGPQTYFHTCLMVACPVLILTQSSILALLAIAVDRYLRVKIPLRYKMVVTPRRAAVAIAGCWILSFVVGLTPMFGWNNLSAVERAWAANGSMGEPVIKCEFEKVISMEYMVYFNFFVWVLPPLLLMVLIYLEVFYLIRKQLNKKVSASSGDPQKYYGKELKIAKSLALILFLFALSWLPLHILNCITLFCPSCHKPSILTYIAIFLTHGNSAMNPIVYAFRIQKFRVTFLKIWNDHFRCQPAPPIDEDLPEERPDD

Chain of Sigma non-opioid intracellular receptor 1 (Q99720 whole entry): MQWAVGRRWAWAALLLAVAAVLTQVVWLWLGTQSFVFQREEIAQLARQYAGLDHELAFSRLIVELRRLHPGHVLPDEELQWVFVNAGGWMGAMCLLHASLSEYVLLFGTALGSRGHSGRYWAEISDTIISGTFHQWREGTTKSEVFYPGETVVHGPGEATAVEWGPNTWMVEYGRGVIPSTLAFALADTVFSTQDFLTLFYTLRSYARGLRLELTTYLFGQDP

Nn1nnc2ccccc21
Not Active: IC50 [1] | IC50 [2] | IC50 [3] | Ki [3] | IC50 (Melanocortin receptor 3) | IC50 (Mu-type opioid receptor) | IC50 [4] | IC50 (Adenosine receptor A1)

CC[C@]1(O)CC[C@H]2[C@@H]3CCC4=CCCC[C@@H]4[C@H]3CC[C@@]21C
Not Active: IC50 [1] | IC50 [2] | IC50 [3] | Ki [3] | IC50 (Melanocortin receptor 3) | IC50 (Mu-type opioid receptor) | IC50 [4] | IC50 (Adenosine receptor A1)

N[C@@H](Cc1ccc(F)cc1)C(=O)O
Not Active: IC50 [1] | IC50 [2] | IC50 [3] | Ki [3] | IC50 (Melanocortin receptor 3) | IC50 (Mu-type opioid receptor) | IC50 [4] | IC50 (Adenosine receptor A1)

CCOC(=O)[C@H](CCc1ccccc1)N[C@@H](C)C(=O)N1Cc2ccccc2C[C@H]1C(=O)O
Not Active: IC50 [1] | IC50 [2] | IC50 [3] | Ki [3] | IC50 (Melanocortin receptor 3) | IC50 (Mu-type opioid receptor) | IC50 [4] | IC50 (Adenosine receptor A1)

O=C(c1ccccc1Cl)N1CCC(Cc2ccccc2)CC1
Not Active: IC50 [1] | IC50 [2] | IC50 [3] | Ki [3] | IC50 (Melanocortin receptor 3) | IC50 (Mu-type opioid receptor) | IC50 [4] | IC50 (Adenosine receptor A1)

CCOC(=O)[C@H](CCc1ccccc1)N[C@@H](C)C(=O)N1CCC[C@H]1C(=O)O
Not Active: IC50 [1] | IC50 [2] | IC50 [3] | Ki [3] | IC50 (Melanocortin receptor 3) | IC50 (Mu-type opioid receptor) | IC50 [4] | IC50 (Adenosine receptor A1)

Clc1cc2c(cc1Cl)Oc1cc(Cl)c(Cl)cc1O2 [2,3,7,8-TETRACHLORODIBENZO-P-DIOXIN]
Not Active: IC50 [1] | IC50 [2] | IC50 [3] | Ki [3] | IC50 (Melanocortin receptor 3) | IC50 [4] | IC50 (Adenosine receptor A1)

C=C1/C(=C\C=C2/CCC[C@]3(C)[C@@H]([C@H](C)CCCC(C)C)CC[C@@H]23)C[C@@H](O)C[C@@H]1O [ALFACALCIDOL]
Not Active: IC50 [1] | IC50 [2] | IC50 [3] | Ki [3] | IC50 (Melanocortin receptor 3) | IC50 (Mu-type opioid receptor) | IC50 [4] | IC50 (Adenosine receptor A1)

CC(C)C[C@H]1C(=O)N2CCC[C@H]2[C@]2(O)O[C@](NC(=O)[C@@H]3C=C4c5cccc6[nH]c(Br)c(c56)C[C@H]4N(C)C3)(C(C)C)C(=O)N12 [BROMOCRIPTINE]
Not Active: IC50 [1] | IC50 [2] | IC50 [3] | Ki [3] | IC50 (Melanocortin receptor 3) | IC50 [4] | IC50 (Adenosine receptor A1)

Nc1nc(N)nc(NC2CC2)n1 [CYROMAZINE]
Not Active: IC50 [1] | IC50 [2] | IC50 [3] | Ki [3] | IC50 (Melanocortin receptor 3) | IC50 [4] | IC50 (Adenosine receptor A1)

COc1ccc(Cc2nccc3cc(OC)c(OC)cc23)cc1OC [PAPAVERINE]
Not Active: IC50 [1] | IC50 [2] | IC50 [3] | Ki [3] | IC50 (Melanocortin receptor 3) | IC50 [4] | IC50 (Adenosine receptor A1)

COBALT(II) ACETYLACETONATE
Not Active: IC50 [1] | Ki [1] | IC50 [2] | Ki [2] | IC50 [3] | Ki [3] | IC50 (Melanocortin receptor 3) | Ki (Melanocortin receptor 3) | IC50 [4] | Ki [4] | IC50 (Adenosine receptor A1) | Ki (Adenosine receptor A1)

INSULIN HUMAN
Not Active: IC50 [1] | Ki [1] | IC50 [2] | Ki [2] | IC50 [3] | Ki [3] | IC50 (Melanocortin receptor 3) | Ki (Melanocortin receptor 3) | IC50 [4] | Ki [4] | IC50 (Adenosine receptor A1) | Ki (Adenosine receptor A1)

POLYVINYL ALCOHOL
Not Active: IC50 [1] | Ki [1] | IC50 [2] | Ki [2] | IC50 [3] | Ki [3] | IC50 (Melanocortin receptor 3) | Ki (Melanocortin receptor 3) | IC50 [4] | Ki [4] | IC50 (Adenosine receptor A1) | Ki (Adenosine receptor A1)

Reference: ChEMBL document CHEMBL1909046, “DrugMatrix in vitro pharmacology data”
